The source of these data is patent publication EP4772500A1, “NOVEL ISOXAZOLE COMPOUND AS TM4SF5-SPECIFIC INHIBITOR AND USE THEREOF” (Seoul National University R&DB Foundation, priority 2023, dated 2025).

In the assay the test system is SNU761-TM4SF5. Put plainly: Western blotting of SLAMF7 expression, TM4SF5-expressing SNU761 cells. The assay is classed as cell-based, human. The conditions noted are these: for expression level of SLAMF7 (WCL): whole-cell lysates, 24 hours (FIG. 15e-f). As to the method:
Cell extracts were obtained from cells grown to a density of 70-80% without any treatment, or from cells treated with vehicle DMSO or drugs at the given concentrations for 24 hours. For the extract of hepatocytes or liver cancer cells, a lysis buffer (150 mM NaCl, 1% NP-40, 50 mM Tris-HCl, 0.25% sodium deoxycholate, pH 7.4) including a protease inhibitor cocktail (GenDEPOT) was used. In addition, after washing animal liver tissue twice with PBS, SDS, Na3VO4, and protease inhibitor cocktails (GenDEPOT) were added to a lysis buffer [50 mM Tris-HCl, pH 7.4, 1% NP40, 0.25% sodium deoxycholate, 150 mM NaCl, 1 mM EDTA (based on 500 ml)], followed by treatment at 4°C for 15 minutes. After centrifugation at 13,000 rpm at 4°C for 30 minutes, only the supernatant was transferred to a new microcentrifuge tube. After quantification using BCA reagent (Thermo Scientific), a 4 × sample buffer [100% glycerol 4 ml, Tris-HCl, pH 6.8, 2.4 ml, SDS 0.8 g, Bromophenol blue 4 mg, betamercaptoethanol 0.4 ml, H2O 3.1 ml (based on 10 ml)] was added, followed by boiling at 100°C for 5 minutes. After performing SDS-PAGE electrophoresis with the above samples and transferring them to Nitrocellulose Membranes Protran™ nitrocellulose membranes (Whatman), pre-treatment was performed with 5% skim milk for 1 hour. After pre-treatment, primary antibodies of p-FAK(Y861) (SC-16663), p-FAK(Y577) (SC-16665), c-Src (SC-8056), STAT3 (SC-8019), p-AKT 1/2/3(S473) (SC-7985), STATS (SC-835), Laminin γ2 (SC-393225), COL1A1 (SC-28657), CCL5(RANTES) (SC-514019) CCL20(MIP-3α) (SC-517441), SIRT1 (SC-74465), ChREBP (SC-515922), SREBP1 (SC-366513), DGAT1 (SC-271934), DGAT2 (SC-293211), MICA/B (SC-137242), SLAMF7 (SC-390840), α-tublin (SC-5286), β-actin (SC-47778), FUCA (SC-365496) (the above from Santa Cruz Biotech, USA), p-FAK(Y397) (cat # 611723), FAK (cat # 610088), p27 (cat # 610242) (the above from BD Transduction, USA), p-FAK(Y925) (#3284) p-c-Src(Y416) (#2101), p-STAT3(Y705) (#9145), p70S6K1 (#9202), p-p70S6K1(T389) (#9205), p-STAT5(Y694) (#9314), ACC (#3676), FASN (#3189), CPT1A (#12252), p-ACC(S79) (#11818), HA (#3724), PD-L1 (#13684), PD-1 (#86163), p-ERK1/2(T202/Y204) (#9101s), ERK1/2 (#9102s) (the above from Cell Signaling Tech., USA), pS10p27(S10) (ab62364), human SLAMF6 (ab224201), TIGIT (ab233404), CD34 (ab81289) (the above from Abcam, UK), mouse SLAMF6 (PA5-87823), NKG2D (PA5-102038) (the above from Thermofisher, USA), α-SMA (Sigma Aldrich, A5228), CCL2 (Invitrogen, MA5-17040), and CD155(PVR) (Biolegend, 337601), HA (Biolegend, USA), Strep-HRP(horse-radish peroxidase), StrepMAB-HRP (IBA, USA), AFP (FineTest, FNab00203) were reacted at 4°C for 15 hours. The next day, secondary antibodies were reacted, and development was performed on X-ray film using ECL (Pierce, USA). […]
After 24 hours, vehicle DMSO, drug ST-1-025, or ST-5-002 was treated at the given concentrations. […] (f) After treating NK92-EV or NK92-TM4SF5 cells with DMSO or drugs ST-2-001 (1 nM), ST-3-005 (10 nM or 1 µM), ST-5-001, or ST-5-002 (100 nM or 1 µM) for 24 hours, the expression of SLAMF7 expressed on the cell surface was analyzed through immunostaining using flow cytometry. The expression level of SLAMF7 was confirmed by adding a SLAMF7 antibody to bind with SLAMF7 and then measuring the fluorescence linked to the SLAMF7 antibody using flow cytometry. […]
In general terms: A western blot detects proteins with antibodies after separation by electrophoresis.

For `COc1cccc(-c2cc(-c3ccc(NC(C)=O)cc3)no2)c1` [ST-3-001, N-(4-(5-(3-methoxyphenyl)isoxazole-3-yl)phenyl)acetamide], the “expression level of SLAMF7 (WCL)” value is reported as “did not show a recovery”.

Turning to `Cc1ccc(C(=O)Nc2ccc(-c3cc(-c4ccc(O)cc4)no3)cc2)cc1` [ST-5-002, N-(4-(3-(4-hydroxyphenyl)isoxazole-5-yl)phenyl)-4-methylbenzamide], the “expression level of SLAMF7 (WCL)” value was “increasing again”. The SLAMF7 expression level result (SNU761-TM4SF5 (FIG. 13d)) was “less lowered or remained high”. Further, the “SLAMF7 expression decreased due to TM4SF5” value (SNU761 with FLAG-SLAMF7 and HA-TM4SF5, given concentrations, 24 hours (FIG. 15d)) is given as “showed a pattern of recovery”.
